Results published in patent US20240408085A1, “COMPOUND FOR DEGRADATION OF BCL-2 FAMILY PROTEINS AND MEDICAL APPLICATION THEREOF” (XIZANG HAISCO PHARMACEUTICAL CO., LTD., priority 2021, published 2024).
Read-outs that look alike come from different tables or passages of the source.

What was measured:
[1] = system: MOLT-4 cells; assay: Cell proliferation activity in MOLT-4 cells (72 h, cell viability luminescence); assay type: cell-based, human; conditions: read-out: IC50 for the inhibition of MOLT-4 cell proliferation
Outline: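 Human acute lymphoblastic leukemia cells were seeded at 5×10^3 cells/well in RPMI-1640 with 10% FBS. They were treated with serially varied compound concentrations for 72 h at 37° C., 5% CO2. A luminescent viability reagent was used for read-out. IC50 was derived relative to vehicle control; maximum inhibition was the inhibition rate at the highest concentration.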

[2] = biological target: T1, BCL-xL proteins (Homo sapiens, UniProt Q07817); assay: BCL-xL degradation activity in MOLT-4 cells (western blot, 16 h); assay type: cell-based
T1 construct: degradation effect on the BCL-xL proteins in MOLT-4 cells; host or cells: MOLT-4
Protocol: MOLT-4 cells are acute lymphoblastic leukemia cell lines in humans. The cells were purchased from ATCC. Culture conditions: RPMI-1640+10% FBS+1% penicillin-streptomycin solution. The cells were cultured in a 37° C., 5% CO2 incubator. The cells were plated in a 12-well plate, with 2×10^5 cells/well. After plating, compounds at different concentrations were added and cultured in a 37° C., 5% CO2 incubator for 16 h. After the completion of culture, the cells were harvested and RIPA lysis buffer (beyotime, Cat. P0013B) was added. The cells were lysed on ice for 15 minutes and centrifuged at 12000 rpm at 4° C. for 10 minutes. The supernatant protein samples were collected and the protein was quantified by using the BCA kit (Beyotime, Cat. P0009). Then the protein was diluted to 0.8 mg/mL. The expressions of BCL-xL (CST, Cat. 2764S), BCL-2 (CST, Cat. 15071S) and the internal reference β-actin (CST, Cat. 3700S) were detected using a fully automated western blot quantitative analyzer (Proteinsimple). The expression level of BCL-xL or BCL-2 relative to the internal reference was calculated by using Compass software, and the DC50 value was calculated by using GraphPad Prism 8.0 software according to formula (1), wherein the Proteinadministration denoted the relative expression level of BCL-xL or BCL-2 in administration groups at different doses, and the Proteinvehicle denoted the relative expression level of BCL-xL or BCL-2 in the vehicle control group.
Protein %=Proteinadministration/Proteinvehicle×100% formula (1)

[3] = system: platelet (PLT); assay: Effect on platelet (PLT) after single intravenous injection; assay type: in vivo, SD rats
Protocol: Experimental animal: 78 SD rats, with an equal number of males and females, male (♂): 290-380 g, female (♀): 220-290 g, 8-10 weeks old, purchased from Zhejiang Vital River Laboratory Animal Technology Co., Ltd.
Experimental protocol: a clear solution was formulated using a vehicle ([…]). The animals were dosed via tail vein a single time (administration volume: 20 mL/kg; bolus injection period: about 4 minutes; recovery period: 7 days).

T1 sequence (Q07817 whole entry): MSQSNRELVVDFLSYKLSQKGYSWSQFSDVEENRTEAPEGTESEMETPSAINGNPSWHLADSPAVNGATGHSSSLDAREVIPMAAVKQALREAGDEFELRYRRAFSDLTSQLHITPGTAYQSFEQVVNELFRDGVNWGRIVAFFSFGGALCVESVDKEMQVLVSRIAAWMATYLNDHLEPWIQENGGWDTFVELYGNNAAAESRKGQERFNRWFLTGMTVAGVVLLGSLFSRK

DC50 [2] [nM] | IC50 ([1]; Homo sapiens) [nM] | SMILES | other results
8.8 | < 500 | Cc1ncsc1-c1ccc([C@H](C)NC(=O)[C@@H]2C[C@@H](O)CN2C(=O)[C@@H](NC(=O)CCCCCC(=O)N2C[C@H]3CN(CC[C@H](CSc4ccccc4)Nc4ccc(S(=O)(=O)NC(=O)c5ccc(N6CCN(CC7=C(c8ccc(Cl)cc8)CCC(C)(C)C7)CC6)cc5)cc4S(=O)(=O)C(F)(F)F)C[C@H]3C2)C(C)(C)C)cc1 [Compound 8, cis-(2S,4R)-1-((2S)-2-(7-(5-((R)-3-((4-(N-(4-(4-((4′-chloro-4,4-dimethyl-3,4,5,6-tetrahydro-[1,1′-biphenyl]-2-yl)methyl)piperazin-1-yl)benzoyl)sulfamoyl)-2-((trifluoromethyl)sulfonyl)phenyl)amino)-4-(phenylthio)butyl)hexahydropyrrolo[3,4-c]pyrrol-2(1H)-yl)-7-oxoheptanamido)-3,3-dimethylbutanoyl)-4-hydroxy-N—((S)-1-(4-(4-methylthiazol-5-yl)phenyl)ethyl)pyrrolidine-2-carboxamide] | 
3.7 | < 500 | Cc1ncsc1-c1ccc([C@H](C)NC(=O)[C@@H]2C[C@@H](O)CN2C(=O)[C@@H](NC(=O)CCCCCC(=O)N2C[C@H]3C[C@@H]2CN3CC[C@H](CSc2ccccc2)Nc2ccc(S(=O)(=O)NC(=O)c3ccc(N4CCN(CC5=C(c6ccc(Cl)cc6)CCC(C)(C)C5)CC4)cc3)cc2S(=O)(=O)C(F)(F)F)C(C)(C)C)cc1 [Compound 10, (2S,4R)-1-((S)-2-(7-((1R,4R)-5-((R)-3-((4-(N-(4-(4-((4′-chloro-4,4-dimethyl-3,4,5,6-tetrahydro-[1,1′-biphenyl]-2-yl)methyl)piperazin-1-yl)benzoyl)sulfamoyl)-2-((trifluoromethyl)sulfonyl)phenyl)amino)-4-(phenylthio)butyl)-2,5-diazabicyclo[2.2.1]heptan-2-yl)-7-oxoheptanamido)-3,3-dimethylbutanoyl)-4-hydroxy-N—((S)-1-(4-(4-methylthiazol-5-yl)phenyl)ethyl)pyrrolidine-2-carboxamide] | 
5.3 | < 500 | Cc1ncsc1-c1ccc([C@H](C)NC(=O)[C@@H]2C[C@@H](O)CN2C(=O)[C@@H](NC(=O)CCCCCC(=O)N2CCN(CC[C@H](CSc3ccccc3)Nc3ccc(S(=O)(=O)NC(=O)c4ccc(N5CCN(CC6=C(c7ccc(Cl)cc7)CCC7(CC7)C6)CC5)cc4)cc3S(=O)(=O)C(F)(F)F)CC2)C(C)(C)C)cc1 [Compound 11, (2S,4R)-1-((S)-2-(7-(4-((R)-3-((4-(N-(4-(4-((6-(4-chlorophenyl)spiro[2.5]oct-5-en-5-yl)methyl)piperazin-1-yl)benzoyl)sulfamoyl)-2-((trifluoromethyl)sulfonyl)phenyl)amino)-4-(phenylthio)butyl)piperazin-1-yl)-7-oxoheptanamido)-3,3-dimethylbutanoyl)-4-hydroxy-N—((S)-1-(4-(4-methylthiazol-5-yl)phenyl)ethyl)pyrrolidine-2-carboxamide] | 
3.6 | < 500 | Cc1ncsc1-c1ccc([C@H](C)NC(=O)[C@@H]2C[C@@H](O)CN2C(=O)[C@@H](NC(=O)CCCC(=O)N2C[C@H]3CN(CC[C@H](CSc4ccccc4)Nc4ccc(S(=O)(=O)NC(=O)c5ccc(N6CCN(CC7=C(c8ccc(Cl)cc8)CCC(C)(C)C7)CC6)cc5)cc4S(=O)(=O)C(F)(F)F)C[C@H]3C2)C(C)(C)C)cc1 [Compound 15, cis-(2S,4R)-1-((S)-2-(5-(5-((R)-3-((4-(N-(4-(4-((4′-chloro-4,4-dimethyl-3,4,5,6-tetrahydro-[1,1′-biphenyl]-2-yl)methyl)piperazin-1-yl)benzoyl)sulfamoyl)-2-((trifluoromethyl)sulfonyl)phenyl)amino)-4-(phenylthio)butyl)hexahydropyrrolo[3,4-c]pyrrol-2(1H)-yl)-5-oxopentanamido)-3,3-dimethylbutanoyl)-4-hydroxy-N—((S)-1-(4-(4-methylthiazol-5-yl)phenyl)ethyl)pyrrolidine-2-carboxamide] | 
10.7 | < 500 | Cc1ncsc1-c1ccc([C@H](C)NC(=O)[C@@H]2C[C@@H](O)CN2C(=O)[C@@H](NC(=O)CCCCCC(=O)N2C[C@H]3C[C@@H]2CN3CC[C@H](CSc2ccccc2)Nc2ccc(S(=O)(=O)NC(=O)c3ccc(N4CCN(CC5=C(c6ccc(Cl)cc6)CCC6(CC6)C5)CC4)cc3)cc2S(=O)(=O)C(F)(F)F)C(C)(C)C)cc1 [Compound 19, (2S,4R)-1-((S)-2-(7-((1R,4R)-5-((R)-3-((4-(N-(4-(4-((6-(4-chlorophenyl)spiro[2.5]oct-5-en-5-yl)methyl)piperazin-1-yl)benzoyl)sulfamoyl)-2-((trifluoromethyl)sulfonyl)phenyl)amino)-4-(phenylthio)butyl)-2,5-diazabicyclo[2.2.1]heptan-2-yl)-7-oxoheptanamido)-3,3-dimethylbutanoyl)-4-hydroxy-N—((S)-1-(4-(4-methylthiazol-5-yl)phenyl)ethyl)pyrrolidine-2-carboxamide] | 
> 20 |  | Cc1ncsc1-c1ccc([C@H](C)NC(=O)[C@@H]2C[C@@H](O)CN2C(=O)[C@@H](NC(=O)CCCCCC(=O)N2CCN(CC[C@H](CSc3ccccc3)Nc3ccc(S(=O)(=O)NC(=O)c4ccc(N5CCN(CC6=C(c7ccc(Cl)cc7)CCC(C)(C)C6)CC5)cc4)cc3S(=O)(=O)C(F)(F)F)CC2)C(C)(C)C)cc1 [Control compound, DT2216, reference compound] | Effect on PLT (↓ decrease) ([3]; SD rats ♀, 6 mg/kg single i.v., 4 h): ↓24%; Effect on PLT (↓ decrease) ([3]; SD rats ♀, 6 mg/kg single i.v., D2): ↓78%; Effect on PLT (↓ decrease) ([3]; SD rats ♀, 20 mg/kg single i.v., 4 h): ↓89%; Effect on PLT (↓ decrease) ([3]; SD rats ♀, 20 mg/kg single i.v., D2): ↓96%; Effect on PLT (↓ decrease) ([3]; SD rats ♀, 60 mg/kg single i.v., D8): ↓87%; Effect on PLT (↓ decrease) ([3]; SD rats ♂, 6 mg/kg single i.v., 4 h): ↓26%; Effect on PLT (↓ decrease) ([3]; SD rats ♂, 6 mg/kg single i.v., D2): ↓69%; Effect on PLT (↓ decrease) ([3]; SD rats ♂, 20 mg/kg single i.v., 4 h): ↓81%; Effect on PLT (↓ decrease) ([3]; SD rats ♂, 20 mg/kg single i.v., D2): ↓91%; Effect on PLT (↓ decrease) ([3]; SD rats ♂, 60 mg/kg single i.v., D8): ↓73%

SMILES | DC50 [2] [nM] | IC50 ([1]; Homo sapiens) [nM] | other results
Cc1ncsc1-c1ccc([C@H](C)NC(=O)[C@@H]2C[C@@H](O)CN2C(=O)[C@@H](NC(=O)CCCCCC(=O)N2C[C@H]3CN(CC[C@H](CSc4ccccc4)Nc4ccc(S(=O)(=O)NC(=O)c5ccc(N6CCN(CC7=C(c8ccc(Cl)cc8F)CCC(C)(C)C7)CC6)cc5)cc4S(=O)(=O)C(F)(F)F)C[C@H]3C2)C(C)(C)C)cc1 (relative stereo) [Compound 14, cis-(2S,4R)-1-((S)-2-(7-(5-((R)-3-((4-(N-(4-(4-((4′-chloro-2′-fluoro-4,4-dimethyl-3,4,5,6-tetrahydro-[1,1′-biphenyl]-2-yl)methyl)piperazin-1-yl)benzoyl)sulfamoyl)-2-((trifluoromethyl)sulfonyl)phenyl)amino)-4-(phenylthio)butyl)hexahydropyrrolo[3,4-c]pyrrol-2(1H)-yl)-7-oxoheptanamido)-3,3-dimethylbutanoyl)-4-hydroxy-N—((S)-1-(4-(4-methylthiazol-5-yl)phenyl)ethyl) pyrrolidine-2-carboxamide] | 8.1 |  | IC50 [1]: < 500 nM
